Data from patent publication US11339171B2, “MDM2 inhibitors” (Gan & Lee Pharmaceuticals, priority 2017, dated 2022).

What was measured:
[1] = tested on: human osteosarcoma cell line SJSA-1; assay: Inhibition of proliferation of human osteosarcoma cell line SJSA-1 (DAPI staining, In Cell Analyzer); settings: for IC50: Homo sapiens, SJSA-1, 72 h, read-out: IC50 (nM), inhibitory activity on proliferation of human osteosarcoma cell line SJSA-1, SJSA-1, incubated 72 h; for inhibitory effect on human osteosarcoma cell line SJSA-1 compared with positive control compound HDM201: labels are Example numbers, the compounds with S-configuration are meant
MDM2 = target: T1, MDM2 (Homo sapiens, UniProt Q00987); assay: Inhibition test of MDM2-P53 (GST-MDM2, Biotin-P53, Anti-GST-Tb, SA-XL665); assay type: binding
T1 construct: made in house
T1 sequence (Q00987 whole entry): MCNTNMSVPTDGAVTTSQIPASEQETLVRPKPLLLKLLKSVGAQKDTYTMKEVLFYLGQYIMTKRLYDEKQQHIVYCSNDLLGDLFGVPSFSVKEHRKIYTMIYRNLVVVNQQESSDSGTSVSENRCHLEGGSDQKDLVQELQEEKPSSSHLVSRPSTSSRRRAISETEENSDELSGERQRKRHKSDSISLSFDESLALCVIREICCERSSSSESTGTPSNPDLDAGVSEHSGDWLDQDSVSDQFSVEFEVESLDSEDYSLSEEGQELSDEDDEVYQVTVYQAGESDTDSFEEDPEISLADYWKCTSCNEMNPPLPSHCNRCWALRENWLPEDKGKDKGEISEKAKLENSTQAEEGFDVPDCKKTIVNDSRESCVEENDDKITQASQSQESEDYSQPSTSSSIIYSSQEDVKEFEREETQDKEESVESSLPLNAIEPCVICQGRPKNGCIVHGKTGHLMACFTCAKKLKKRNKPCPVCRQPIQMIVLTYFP
Summary of the method: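 HTRF-type assay using 4 nM GST-MDM2 (final), Biotin-P53, SA-XL665 and anti-GST-Tb in PBS with 0.1% BSA, 5 mM DTT and 1 mM AEBSF. Compounds in 5-fold serial dilutions over twelve points; incubation 90 min at 25° C with shaking before plate-reader read-out.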

CCc1ccccc1-c1nc2c(n1C(C)C)[C@@]1(C(=O)Nc3cc(Cl)ccc31)N(c1cc(Cl)ccc1C)C2=O [Example S-7, (S)-6-chloro-5′-(5-chloro-2-methylphenyl)-2′-(2-ethylphenyl)-3′-isopropylisopropyl-3′H-spiro[dihydroindole-3,4′-pyrrolo[3,4-d]imidazole]-2,6′(5′H)-dione]
IC50 [1]: 1270 nM
IC50 (MDM2): 73.2 nM

COc1cc(C(C)C)ncc1-c1nc2c(n1C(C)C)[C@@]1(C(=O)Nc3cc(Cl)ccc31)N(c1cc(Cl)ccc1C)C2=O [Example S-164, (S)-6-chloro-5′-(5-chloro-2-methylphenyl)-3′-isopropyl-2′-(6-isopropyl-4-methoxypyridin-3-yl)-3′H-spiro[dihydroindole-3,4′-pyrrolo[3,4-d]imidazole]-2,6′(5′H)-dione]
IC50 [1]: 16.8 nM
IC50 (MDM2): 0.94 nM

COc1cnccc1-c1nc2c(n1C(C)C)[C@@]1(C(=O)Nc3cc(Cl)ccc31)N(c1cc(Cl)ccc1C)C2=O [Example S-10, (S)-6-chloro-5′-(5-chloro-2-methylphenyl)-3′-isopropyl-2′-(3-methoxypyridin-4-yl)-3′H-spiro[dihydroindole-3,4′-pyrrolo[3,4-d]imidazole]-2,6′(5′H)-dione]
IC50 [1]: 124 nM
IC50 (MDM2): 2.77 nM

COc1cccc(F)c1-c1nc2c(n1C(C)C)[C@@]1(C(=O)Nc3cc(Cl)ccc31)N(c1cc(Cl)ccc1C)C2=O [Example S-57, (S)-6-chloro-5′-(5-chloro-2-methylphenyl)-2′-(2-fluoro-6-methoxyphenyl)-3′-isopropyl-3′H-spiro[dihydroindole-3,4′-pyrrolo[3,4-d]imidazole]-2,6′(5′H)-dione]
IC50 [1]: 11.8 nM
IC50 (MDM2): 3.04 nM

COc1cc(C2CC2)ccc1-c1nc2c(n1C(C)C)[C@@]1(C(=O)Nc3cc(Cl)ccc31)N(c1cccc(Cl)c1)C2=O [Example S-116, (S)-6-chloro-5′-(3-chlorophenyl)-2′-(4-cyclopropyl-2-methoxyphenyl)-3′-isopropyl-3′H-spiro[dihydroindole-3,4′-pyrrolo[3,4-d]imidazole]-2,6′(5′H)-dione]
IC50 [1]: 213 nM
IC50 (MDM2): 4.18 nM

COc1cc(N(C)CCO)ccc1-c1nc2c(n1C(C)C)[C@]1(C(=O)Nc3cc(Cl)ccc31)N(c1cc(Cl)ccc1C)C2=O [Example R-162, (R)-6-chloro-5′-(5-chloro-2-methylphenyl)-2′-(4-((2-hydroxyethyl)(methyl)amino)-2-methoxyphenyl)-3′-isopropyl-3′H-spiro[dihydroindole-3,4′-pyrrolo[3,4-d]imidazole]-2,6′(5′H)-dione]
IC50 [1]: 782 nM
IC50 (MDM2): 120 nM

COc1ncc(-c2nc3c(n2C(C)C)[C@@]2(C(=O)Nc4cc(Cl)ccc42)N(c2ccc(C#N)c(Cl)c2)C3=O)c(OC)n1 [Example S-158, (S)-2-chloro-4-(6-chloro-2′-(2,4-dimethoxypyrimidin-5-yl)-3′-isopropyl-2,6′-dioxo-3′,6′-dihydro-5′H-spiro[dihydroindole-3,4′-pyrrolo[3,4-d]imidazole]-5′-yl)benzonitrile]
IC50 [1]: 550 nM
IC50 (MDM2): 4.07 nM

COc1cc(N(C)C)ccc1-c1nc2c(n1C(C)C)[C@]1(C(=O)Nc3cc(Cl)ccc31)N(c1cc(Cl)ccc1C)C2=O [Example R-23, (R)-6-chloro-5′-(5-chloro-2-methylphenyl)-2′-(4-(dimethylamino)-2-methoxyphenyl)-3′-isopropyl-3′H-spiro[dihydroindole-3,4′-pyrrolo[3,4-d]imidazole]-2,6′(5′H)-dione]
IC50 [1]: 354 nM
IC50 (MDM2): 175 nM

CCOc1ccc(-c2nc3c(n2C(C)C)[C@@]2(C(=O)Nc4cc(Cl)ccc42)N(c2cc(Cl)ccc2C)C3=O)c(OC)n1 [Example S-146, (S)-6-chloro-5′-(5-chloro-2-methylphenyl)-2′-(6-ethoxy-2-methoxypyridin-3-yl)-3′-isopropyl-3′H-spiro[dihydroindole-3,4′-pyrrolo[3,4-d]imidazole]-2,6′(5′H)-dione]
IC50 [1]: 67.8 nM
IC50 (MDM2): 5.44 nM

COc1cc(C2CC2)cc(OC)c1-c1nc2c(n1C(C)C)[C@@]1(C(=O)Nc3cc(Cl)ccc31)N(c1cc(Cl)ccc1C)C2=O [Example S-108, (S)-6-chloro-5′-(5-chloro-2-methylphenyl)-2′-(4-cyclopropyl-2,6-dimethoxyphenyl)-3′-isopropyl-3′H-spiro[dihydroindole-3,4′-pyrrolo[3,4-d]imidazole]-2,6′(5′H)-dione]
IC50 [1]: 28.8 nM
IC50 (MDM2): 8.87 nM

COc1cc(N(C)C)ccc1-c1nc2c(n1C(C)C)[C@@]1(C(=O)Nc3cc(Cl)ccc31)N(c1cc(Cl)ccc1F)C2=O [Example S-81, (S)-6-chloro-5′-(5-chloro-2-fluorophenyl)-2′-(4-(dimethylamino)-2-methoxyphenyl)-3′-isopropyl-3′H-spiro[dihydroindole-3,4′-pyrrolo[3,4-d]imidazole]-2,6′(5′H)-dione]
IC50 [1]: 82.8 nM
IC50 (MDM2): 1.23 nM

COc1ccncc1-c1nc2c(n1C(C)C)[C@@]1(C(=O)Nc3cc(Cl)ccc31)N(c1ccc(F)c(Cl)c1)C2=O [Example S-59, (S)-6-chloro-5′-(3-chloro-4-fluorophenyl)-3′-isopropyl-2′-(4-methoxypyridin-3-yl)-3′H-spiro[dihydroindole-3,4′-pyrrolo[3,4-d]imidazole]-2,6′(5′H)-dione]
IC50 [1]: 263 nM

COc1cc(OC)c(-c2nc3c(n2C(C)C)C2(C(=O)Nc4cc(Cl)ccc42)N(c2cc(Cl)ccc2C)C3=O)cc1C (stereo not shown) [Example 83, 6-chloro-5′-(5-chloro-2-methylphenyl)-2′-(2,4-dimethoxy-5-methylphenyl)-3′-isopropyl-3′H-spiro[dihydroindole-3,4′-pyrrolo[3,4-d]imidazole]-2,6′(5′H)-dione]
inhibitory effect on human osteosarcoma cell line SJSA-1 compared with positive control compound HDM201 [1]: better

COc1ccc(-c2nc3c(n2C(C)C)[C@]2(C(=O)Nc4cc(Cl)ccc42)N(c2cccc(Cl)c2)C3=O)c(OC)c1 [Example R-36, (R)-6-chloro-5′-(3-chlorophenyl)-2′-(2,4-dimethoxyphenyl)-3′-isopropyl-3′H-spiro[dihydroindole-3,4′-pyrrolo[3,4-d]imidazole]-2,6′(5′H)-dione]
IC50 [1]: 3180 nM

COc1cc(F)ccc1-c1nc2c(n1C(C)C)C1(C(=O)Nc3cc(Cl)ccc31)N(c1cc(Cl)ccc1C)C2=O (stereo not shown) [Example 4, 6-chloro-5′-(5-chloro-2-methylphenyl)-2′-(4-fluoro-2-methoxyphenyl)-3′-isopropyl-3′H-spiro[dihydroindole-3,4′-pyrrolo[3,4-d]imidazole]-2,6′(5′H)-dione]
inhibitory effect on human osteosarcoma cell line SJSA-1 compared with positive control compound HDM201 [1]: better

COc1nc(N2CCCC2)ncc1-c1nc2c(n1C(C)C)C1(C(=O)Nc3cc(Cl)ccc31)N(c1cc(Cl)ccc1C)C2=O (stereo not shown) [Example 114]
inhibitory effect on human osteosarcoma cell line SJSA-1 compared with positive control compound HDM201 [1]: better

COc1cc(C2CC2)ccc1-c1nc2c(n1C(C)C)C1(C(=O)Nc3cc(Cl)ccc31)N(c1cc(Cl)ccc1C)C2=O (stereo not shown) [Example 86, 6-chloro-5′-(5-chloro-2-methylphenyl)-2′-(4-cyclopropyl-2-methoxyphenyl)-3′-isopropyl-3′H-spiro[dihydroindole-3,4′-pyrrolo[3,4-d]imidazole]-2,6′(5′H)-dione]
inhibitory effect on human osteosarcoma cell line SJSA-1 compared with positive control compound HDM201 [1]: better

COc1cc(C2CC2)ccc1-c1nc2c(n1C(C)C)C1(C(=O)Nc3cc(Cl)ccc31)N(c1cc(Cl)cnc1C)C2=O (stereo not shown) [Example 145, 6-chloro-5′-(5-chloro-2-methylpyridin-3-yl)-2′-(4-cyclopropyl-2-methoxyphenyl)-3′-isopropyl-3′H-spiro[dihydroindole-3,4′-pyrrolo[3,4-d]imidazole]-2,6′(5′H)-dione]
inhibitory effect on human osteosarcoma cell line SJSA-1 compared with positive control compound HDM201 [1]: better

COc1cc(C(C)C)ccc1-c1nc2c(n1C(C)C)C1(C(=O)Nc3cc(Cl)ccc31)N(c1cc(Cl)cnc1C)C2=O (stereo not shown) [Example 89, 6-chloro-5′-(5-chloro-2-methylpyridin-3-yl)-3′-isopropyl-2′-(4-isopropyl-2-methoxyphenyl)-3′H-spiro[dihydroindole-3,4′-pyrrolo[3,4-d]imidazole]-2,6′(5′H)-dione]
inhibitory effect on human osteosarcoma cell line SJSA-1 compared with positive control compound HDM201 [1]: better

COc1cc(C(C)C)ccc1-c1nc2c(n1C(C)C)C1(C(=O)Nc3cc(Cl)ccc31)N(c1cc(Cl)ccc1C)C2=O (stereo not shown) [Example 32, 6-chloro-5′-(5-chloro-2-methylphenyl)-3′-isopropyl-2′-(4-isopropyl-2-methoxyphenyl)-3′H-spiro[dihydroindole-3,4′-pyrrolo[3,4-d]imidazole]-2,6′(5′H)-dione]
inhibitory effect on human osteosarcoma cell line SJSA-1 compared with positive control compound HDM201 [1]: better

COc1cc(C)ccc1-c1nc2c(n1C(C)C)C1(C(=O)Nc3cc(Cl)ccc31)N(c1cc(Cl)ccc1C)C2=O (stereo not shown) [Example 24, 6-chloro-5′-(5-chloro-2-methylphenyl)-3′-isopropyl-2′-(2-methoxy-4-methylphenyl)-3′H-spiro[dihydroindole-3,4′-pyrrolo[3,4-d]imidazole]-2,6′(5′H)-dione]
inhibitory effect on human osteosarcoma cell line SJSA-1 compared with positive control compound HDM201 [1]: better

COc1ccc(C#N)cc1-c1nc2c(n1C(C)C)C1(C(=O)Nc3cc(Cl)ccc31)N(c1cc(Cl)ccc1C)C2=O (stereo not shown) [Example 13, 3-(6-chloro-5′-(5-chloro-2-methylphenyl)-3′-isopropyl-2,6′-dioxo-5′,6′-dihydro-3′H-spiro[dihydroindole-3,4′-pyrrolo[3,4-d]imidazole]-2′-yl)-4-methoxybenzonitrile]
inhibitory effect on human osteosarcoma cell line SJSA-1 compared with positive control compound HDM201 [1]: better

COc1cc(N(C)CCO)ccc1-c1nc2c(n1C(C)C)C1(C(=O)Nc3cc(Cl)ccc31)N(c1cc(Cl)ccc1C)C2=O (stereo not shown) [Example 162, 6-chloro-5′-(5-chloro-2-methylphenyl)-2′-(4-((2-hydroxyethyl)(methyl)amino)-2-methoxyphenyl)-3′-isopropyl-3′H-spiro[dihydroindole-3,4′-pyrrolo[3,4-d]imidazole]-2,6′(5′H)-dione]
inhibitory effect on human osteosarcoma cell line SJSA-1 compared with positive control compound HDM201 [1]: better
